Counter-ions that a name gives are not always drawn. Like-named read-outs stand apart in the source and are kept apart here.
Target: T1, recombinant human baculovirus-expressed GST-tagged FASN (Homo sapiens, UniProt P49327)
T1 construct: GST
Assay: biochemical

[1] = 5 nM FASN, 150 μM NADPH, 10 μM acetyl-CoA, 25 μM malonyl-CoA, 90 minutes incubation, read-out: IC50 data for Compounds of Formula I, Activity

T1 sequence (P49327 whole entry): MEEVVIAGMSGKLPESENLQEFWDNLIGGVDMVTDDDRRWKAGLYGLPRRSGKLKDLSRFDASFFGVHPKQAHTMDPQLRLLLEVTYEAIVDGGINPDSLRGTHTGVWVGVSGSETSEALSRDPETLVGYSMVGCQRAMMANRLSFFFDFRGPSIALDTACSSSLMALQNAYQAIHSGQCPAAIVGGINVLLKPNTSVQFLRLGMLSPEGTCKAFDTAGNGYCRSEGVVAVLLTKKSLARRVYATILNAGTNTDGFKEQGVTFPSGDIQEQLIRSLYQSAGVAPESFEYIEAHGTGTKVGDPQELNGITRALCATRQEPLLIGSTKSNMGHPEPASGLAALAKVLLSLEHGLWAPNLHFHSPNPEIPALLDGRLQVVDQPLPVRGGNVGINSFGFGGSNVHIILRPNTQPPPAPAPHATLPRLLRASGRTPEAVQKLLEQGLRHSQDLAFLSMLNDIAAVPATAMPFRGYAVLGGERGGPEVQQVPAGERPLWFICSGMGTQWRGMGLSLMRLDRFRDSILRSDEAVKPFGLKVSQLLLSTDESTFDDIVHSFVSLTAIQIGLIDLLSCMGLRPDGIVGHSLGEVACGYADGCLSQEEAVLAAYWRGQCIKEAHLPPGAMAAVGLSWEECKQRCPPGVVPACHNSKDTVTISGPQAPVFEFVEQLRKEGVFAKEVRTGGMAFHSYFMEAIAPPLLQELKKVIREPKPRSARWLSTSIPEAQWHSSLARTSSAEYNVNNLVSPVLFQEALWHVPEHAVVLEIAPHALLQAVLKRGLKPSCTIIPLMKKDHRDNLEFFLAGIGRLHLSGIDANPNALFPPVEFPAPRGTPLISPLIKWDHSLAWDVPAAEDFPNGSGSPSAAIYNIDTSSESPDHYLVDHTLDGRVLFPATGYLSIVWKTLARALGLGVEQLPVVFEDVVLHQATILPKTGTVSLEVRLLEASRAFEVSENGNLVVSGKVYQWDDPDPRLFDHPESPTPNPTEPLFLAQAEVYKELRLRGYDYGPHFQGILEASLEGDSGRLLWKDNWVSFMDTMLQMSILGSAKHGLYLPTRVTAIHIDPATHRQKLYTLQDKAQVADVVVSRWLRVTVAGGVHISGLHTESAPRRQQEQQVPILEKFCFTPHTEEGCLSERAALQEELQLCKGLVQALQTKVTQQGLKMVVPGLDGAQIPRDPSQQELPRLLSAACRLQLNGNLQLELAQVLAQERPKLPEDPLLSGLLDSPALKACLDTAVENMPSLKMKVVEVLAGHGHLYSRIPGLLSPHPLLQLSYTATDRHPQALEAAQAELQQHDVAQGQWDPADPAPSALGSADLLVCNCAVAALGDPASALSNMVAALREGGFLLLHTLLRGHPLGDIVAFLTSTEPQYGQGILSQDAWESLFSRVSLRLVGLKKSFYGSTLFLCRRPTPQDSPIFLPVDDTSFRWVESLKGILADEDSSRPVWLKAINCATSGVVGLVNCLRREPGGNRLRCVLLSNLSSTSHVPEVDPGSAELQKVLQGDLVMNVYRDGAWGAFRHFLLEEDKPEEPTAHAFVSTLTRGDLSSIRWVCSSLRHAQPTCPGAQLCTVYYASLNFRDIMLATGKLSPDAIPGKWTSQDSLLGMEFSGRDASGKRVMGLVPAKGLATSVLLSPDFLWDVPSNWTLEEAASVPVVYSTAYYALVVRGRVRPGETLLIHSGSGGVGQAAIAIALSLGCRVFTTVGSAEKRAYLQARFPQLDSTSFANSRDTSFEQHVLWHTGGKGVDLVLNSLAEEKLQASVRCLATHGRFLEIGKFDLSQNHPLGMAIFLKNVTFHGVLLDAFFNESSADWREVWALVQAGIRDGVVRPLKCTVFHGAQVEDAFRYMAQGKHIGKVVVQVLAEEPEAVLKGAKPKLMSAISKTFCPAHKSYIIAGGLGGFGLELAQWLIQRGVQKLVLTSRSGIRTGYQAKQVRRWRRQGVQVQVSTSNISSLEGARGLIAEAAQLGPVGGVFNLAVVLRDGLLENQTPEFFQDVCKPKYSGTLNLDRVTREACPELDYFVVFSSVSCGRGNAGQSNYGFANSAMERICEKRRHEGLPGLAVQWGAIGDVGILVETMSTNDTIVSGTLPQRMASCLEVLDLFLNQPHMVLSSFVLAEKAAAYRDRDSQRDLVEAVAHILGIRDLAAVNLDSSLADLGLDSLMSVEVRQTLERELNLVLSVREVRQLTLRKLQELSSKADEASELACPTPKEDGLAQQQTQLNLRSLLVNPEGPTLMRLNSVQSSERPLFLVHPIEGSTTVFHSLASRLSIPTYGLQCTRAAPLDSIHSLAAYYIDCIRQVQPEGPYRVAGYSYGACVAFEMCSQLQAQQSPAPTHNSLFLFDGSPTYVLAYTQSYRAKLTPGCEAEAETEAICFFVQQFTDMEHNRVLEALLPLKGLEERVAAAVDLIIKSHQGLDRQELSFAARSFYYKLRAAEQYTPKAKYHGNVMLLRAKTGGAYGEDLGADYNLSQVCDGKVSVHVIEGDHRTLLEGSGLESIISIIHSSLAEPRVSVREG

Row | SMILES | IC50 [nM] | IC50 [1] [nM]
1 | CCC(=O)N1CCC2(CC1)OCc1cc(-c3cnc4cccnc4c3)ccc1O2 [Example 36, 1-[6-(1,5-Naphthyridin-3-yl)spiro[4H-1,3-benzodioxine-2,4′-piperidine]-1′-yl]propan-1-one] | 1000 to 10000 | –
2 | CCC(=O)N1CCC2(CCc3cc(-c4ccc5nccn5c4C)ccc3O2)CC1 [Example 26, 1-[6-(5-methylimidazo[1,2-a]pyridin-6-yl)spiro[chromane-2,4′-piperidine]-1′-yl]propan-1-one] | – | 100 to 999
3 | COc1c(-c2ccc3c(c2)CCC2(CCN(C(=O)[C@H]4CCCO4)CC2)O3)ccc2cccnc12 [Example 16, [6-(8-Methoxy-7-quinolyl)spiro[chromane-2,4′-piperidine]-1′-yl]-[(2R)-tetra-hydrofuran-2-yl]methanone HCl] | – | 1 to 99
4 | CCOC(=O)N1CCC2(CCc3cc(-c4ccc5cccnc5c4Cl)ccc3O2)CC1 [Example 71, Ethyl 6-(8-chloro-7-quinolyl)spiro[chromane-2,4′-piperidine]-1′-carboxylate] | – | 1000 to 10000
5 | O=C(C1CCC1)N1CCC2(CC1)OCc1cc(-c3cnc4ccccc4c3)ccc1O2 [Example 41, Cyclobutyl-[6-(3-quinolyl)spiro[4H-1,3-benzodioxine-2,4′-piperidine]-1′-yl]methanone] | 1 to 99 | –
6 | CC(C)C(=O)N1CCC2(CC1)OCc1cc(-c3cnc4ccccc4c3)ccc1O2 [Example 34, 2-Methyl-1-[6-(3-quinolyl)spiro[4H-1,3-benzodioxine-2,4′-piperidine]-1′-yl]propan-1-one] | 1 to 99 | –
7 | CCC(=O)N1CCC2(CC1)OCc1cc(-c3cccnc3)ccc1O2 [Example 224, 1-[6-(3-Pyridyl)spiro[4H-1,3-benzodioxine-2,4′-piperidine]-1′-yl]propan-1-one, HCl] | 1000 to 10000 | –
8 | Cc1nccc2cc(-c3ccc4c(c3)CCC3(CCN(C(=O)[C@H]5CCCO5)CC3)O4)ccc12 [Example 1, [6-(1-Methyl-6-isoquinolyl)spiro[chromane-2,4′-piperidine]-1′-yl]-[(2R)-tetrahydrofuran-2-yl]methanone, HCl] | – | 1 to 99
9 | Cc1c(-c2ccc3c(c2)CCC2(CCN(C(=O)C4CC4)CC2)O3)ccc2cccnc12 [Example 7, Cyclopropyl-[6-(8-methyl-7-quinolyl)spiro[chromane-2,4′-piperidine]-1′-yl]methanone, HCl] | – | 1 to 99
10 | O=C([C@H]1CCCO1)N1CCC2(CCc3cc(-c4ccc5cccnc5c4Cl)ccc3O2)CC1 [Example 11, [6-(8-Chloro-7-quinolyl)spiro[chromane-2,4′-piperidine]-1′-yl]-[(2R)-tetrahydrofuran-2-yl]methanone, HCl] | – | 1 to 99
11 | O=C(NOC1CCCCO1)N1CCC2(CCc3cc(-c4ccc5cccnc5c4Cl)ccc3O2)CC1 (centres unmarked) [Example 65, 6-(8-Chloro-7-quinolyl)-N-tetrahydropyran-2-yloxy-spiro[chromane-2,4′-piperidine]-1′-carboxamide] | – | 1 to 99
12 | CCNC(=O)N1CCC2(CC1)OCc1cc(-c3ccc4c(C)nccc4c3)ccc1O2 [Example 197, N-ethyl-6-(1-methyl-6-isoquinolyl)spiro[4H-1,3-benzodioxine-2,4′-piperidine]-1′-carboxamide] | 1 to 99 | –
13 | COc1c(-c2ccc3c(c2)COC2(CCN(C(N)=O)CC2)O3)ccc2cccnc12 [Example 174, 6-(8-Methoxy-7-quinolyl)spiro[4H-1,3-benzodioxine-2,4′-piperidine]-1′-carboxamide] | 1 to 99 | –
14 | CONC(=O)N1CCC2(CCc3cc(-c4cc5ccccc5cn4)ccc3O2)CC1 [Example 148, 6-(3-Isoquinolyl)-N-methoxy-spiro[chromane-2,4′-piperidine]-1′-carboxamide] | – | 1 to 99
15 | Cc1nccc2cc(-c3ccc4c(c3)CCC3(CCN(C(=O)NOC(C)C)CC3)O4)ccc12 [Example 180, N-Isopropoxy-6-(1-methyl-6-isoquinolyl)spiro[chromane-2,4′-piperidine]-1′-carboxamide] | – | 1 to 99
16 | Cc1c(-c2ccc3c(c2)COC2(CCN(C(N)=O)CC2)O3)ccc2ccnn12 [Example 127, 6-(7-Methylpyrazolo[1,5-a]pyridin-6-yl)spiro[4H-1,3-benzodioxine-2,4′-piperidine]-1′-carboxamide] | 100 to 999 | –
17 | CONC(=O)N1CCC2(CC1)OCc1cc(-c3ccc4cccnc4c3C)ccc1O2 [Example 122, N-Methoxy-6-(8-methyl-7-quinolyl)spiro[4H-1,3-benzodioxine-2,4′-piperidine]-1′-carboxamide] | 1 to 99 | –
18 | NC(=O)N1CCC2(CCc3cc(-c4ccc5ocnc5c4)ccc3O2)CC1 [Example 86, 6-(1,3-Benzoxazol-5-yl)spiro[chromane-2,4′-piperidine]-1′-carboxamide] | – | 1000 to 10000
19 | CONC(=O)N1CCC2(CCc3cc(-c4ccc5c(C)nccc5c4)c(C)cc3O2)CC1 [Example 246, N-Methoxy-7-methyl-6-(1-methyl-6-isoquinolyl)spiro[chromane-2,4′-piperidine]-1′-carboxamide] | – | 100 to 999
20 | CCC(=O)N1CCC2(CCc3cc(-c4cc(C)c5ncccc5c4)ccc3O2)CC1 [Example 17, 1-[6-(8-Methyl-6-quinolyl)spiro[chromane-2,4′-piperidine]-1′-yl]propan-1-one, HCl] | – | 100 to 999
21 | O=C([C@H]1CCCO1)N1CCC2(CCc3cc(-c4ccccn4)ccc3O2)CC1 [Example 217, [6-(2-Pyridyl)spiro[chromane-2,4′-piperidine]-1′-yl]-[(2R)-tetrahydrofuran-2-yl]methanone, HCl] | – | 1000 to 10000
22 | CCONC(=O)N1CCC2(CCc3cc(-c4ccc5cccnc5c4OC)ccc3O2)CC1 [Example 211, N-Ethoxy-6-(8-methoxy-7-quinolyl)spiro[chromane-2,4′-piperidine]-1′-carboxamide] | – | 1 to 99
23 | Cc1c(-c2ccc3c(c2)CCC2(CCN(C(N)=O)CC2)O3)ccc2cccnc12 [Example 106, 6-(8-Methyl-7-quinolyl)spiro[chromane-2,4′-piperidine]-1′-carboxamide] | – | 1 to 99
24 | CCNC(=O)N1CCC2(CCc3cc(-c4ccc5c(C)nccc5c4)ccc3O2)CC1 [Example 187, N-Ethyl-6-(1-methyl-6-isoquinolyl)spiro[chromane-2,4′-piperidine]-1′-carboxamide] | – | 1 to 99
25 | Cc1c(-c2ccc3c(c2)CC2(CCN(C(=O)NO)CC2)O3)cnc2ccccc12 [Example 161, 5-(4-Methyl-3-quinolyl)spiro[3H-benzofuran-2,4′-piperidine]-1′-carbohydroxamic acid] | – | 1000 to 10000
26 | Cc1c(-c2ccc3c(c2)CCOC2(CCN(C(N)=O)CC2)O3)ccc2cccnc12 [Example 77, 7-(8-methyl-7-quinolyl)spiro[4,5-dihydro-1,3-benzodioxepine-2,4′-piperidine]-1′-carboxamide] | 100 to 999 | –
27 | Cc1cc2cc(-c3ccc4c(c3)COC3(CCN(C(=O)NO)CC3)O4)ccc2cn1 [Example 204, 6-(3-Methyl-6-isoquinolyl)spiro[4H-1,3-benzodioxine-2,4′-piperidine]-1′-carbohydroxamic acid] | 100 to 999 | –
28 | NC(=O)N1CCC2(CC1)OCc1cc(-c3ccc4cccnc4c3Cl)ccc1O2 [Example 131, 6-(8-Chloro-7-quinolyl)spiro[4H-1,3-benzodioxine-2,4′-piperidine]-1′-carboxamide] | 100 to 999 | –
29 | Cc1c(-c2ccc3c(c2)COC2(CCN(C(=O)CO)CC2)O3)ccc2cccnc12 [Example 62, 2-Hydroxy-1-[6-(8-methyl-7-quinolyl)spiro[4H-1,3-benzodioxine-2,4′-piperidine]-1′-yl]ethanone] | 100 to 999 | –

From patent US12448392B2, “Spiropiperidine derivatives” (89BIO LTD, priority 2016, dated 2025)
